Assay results taken from patent US6340755B1, “5H-Pyrano[2,3-d: 6,5-d']dipyrimidine derivatives having an antibacterial, antiviral and immuno-modulating activity” (Natural Drug Sciences LLC, priority 2000, dated 2002).

Tests used:
[1] = tested on: herpes simplex type I (VPG-I/Leningrad/248/88); assay: Activity on herpes simplex virus: cytopathic action of the virus on Vero cells; type: cell-based; settings: 36 hours; for number of cells in 100 fields (unchanged cells): cell control 12000
Description: (§1) The antiviral activity was studied relative to the virus herpes simplex type I (VPG-I/Leningrad/248/88) by a standard method. The virus was grown on a reinoculated Vero cell culture obtained from the cell culture bank of the Institute of Cytology of the Russian Academy of Sciences.
(§2) To cells grown on medium RPMI-1640 with 10% calf serum and placed in the wells of a 96-well plate, the virus was added to give a final concentration of 10 particles/ml and the claimed compounds dissolved in DMSO were added to give a final concentrations of 100, 10, and 1 mg/l. We used 5 individual wells for every concentration tested. The plate was incubated for 60 min at 38° C. in a CO2 incubator. After incubation the virus was removed and new medium was added that contained the claimed compounds in the test concentrations.
The results were evaluated according to the existence of a cytopathic action of the virus on the cells after 36 hours of incubation at 38° C. in the CO2 incubator.
The following controls were used in the experiment:
3. Control of antiviral activity of an antiviral preparation—acylcovir.
To access the cytopathic effect of the virus, we counted the number of unchanged cells in 100 fields formed by a specialized grid on the eyepiece of the inversion microscope.

[2] = tested on: C. trachomatis D323; assay: Activity on Chlamydia trachomatis in McCoy and L929 cell cultures; type: cell-based; settings: 48 hours; for number of cells in 100 fields (unchanged cells): cell control 8000, infected cell control 6400
Description: The antimicrobial activity of the claimed compounds was studied on C. trachomatis […]-a standard strain from the collection of the Department of Microbiology of the Pavlov St.-Petersburg State University. This strain was isolated from a patient with […] urethritis. […] In the work reported here we used McCoy and L929 cell cultures obtained from the Institute of Cytology of the Russian Academy of Sciences. The cells were grown in flasks of neutral glass in RPMI-1640 medium with an addition of 10% fetal calf serum. The experiment was placed in glass (toxicity-free) flat-bottomed flasks and covered with glass. The cells were introduced into the medium in a final concentration of 1·10 cells/ml. […] The sample was centrifuged at 2400 g for 60 min at room temperature and incubated at 37° C. for 2 hours. […] A parallel series of samples was run using medium without the cycloheximide in order to avoid its influence on the test substances. The samples were incubated for 48 hours in a CO2 incubator. […] The results were evaluated from the detection of chlamydia cytoplasmatic inclusion by an immunoenzyme method (MicroTrac Chlamydia trachomatis Direct Specimen Test) and from chlamydia antigens using CylaMonoScreen (Russian-British Joint Venture, 66 Regent's Park Road, London NW 1 7SX).

[3] = Acute toxicity (LD50) in mice; type: in vivo; settings: non-linebred white, mouse, in vivo, iv; mice 18-20 g; by mouth or intravenously; observation period 14 days
Description: Acute toxicity was determined on non-linebred white mice weighing 18-20 g. Emulsions of certain of the claimed compounds were prepared in a range of concentrations: 1500, 700, 500, 100, 20 and 5 μg/kg. Five animals were used to study each specific concentration of a compound. The preparation was administered once a day by mouth or intravenously. The observation period was 14 days On days 1, 8 and 15 the animals in every group were weighed. For a control we used animals who received the emulsion without the test compounds.
All animals, both that died in the course of the experiment and those that survived to the end of the experiment, were opened to allow macroscopic examination of internal organs.
In the course of the experiment no loss of weight was observed or any change in behavior or external appearance, nor was there any loss of life. Based on the results of the macroscopic examination of internal organs of the animals in the test and the control groups, no pathological findings were made (Table 7).

[4] = tested on: herpes simplex type I (VPG-I/Leningrad/248/88); assay: Activity on herpes simplex virus: cytopathic action of the virus on Vero cells; type: cell-based; settings: 50 mg/l, 36 hours
[5] = tested on: primary culture of human lymphocytes; assay: Interferon-inducing activity in primary culture of human lymphocytes (immunoenzyme IFN determination); type: cell-based; parameters: unit of the concentration uncertain; settings: 24 hours of incubation
Description: Interferon synthesis induction by the claimed preparations was conducted on a primary culture of human lymphocytes (the cells in the human body are the main producers of interferon). To obtain a culture of the lymphocytes we used fresh blood (12 hours after collection) from healthy […] (not from the second group).
The lymphocyte concentration was determined after staining with methyl blue and the number of cells in the Goryaev chamber was calculated. […] The final concentration of the lymphocytes in the induction mixture was 3·10^6 cells/ml. The following controls were processed in parallel with the test samples:
The control and the experimental samples were incubated for 24 hours at 37° C. Following incubation the samples were centrifuged at 2000 g to settle out the cellular elements and the INF-containing supernatant was taken from the samples and analyzed for INF content. The cell residue was resuspended in the same volume of nutrient medium, stained with a vital dye—trypan blue—and the number of cells in the Goryaev chamber was calculated (as described above) to determine the cytotoxic activity of the preparations.
For the quantitative determination of INF in the control and experimental samples we used the ProCon IF2 Plus immunoenzyme test system sold by TOO Proteinovyi Kontur. To determine the quantity of interferon s in the sample we used a solid-phase immunoenzyme method utilizing horseradish peroxidase as the enzyme indicator. The activity of the bound peroxidase was measured using an automated photometer at a wavelength of 450 nm for the microplanchets with a microprocessor. […] On the basis of the results obtained we plotted a calibration curve that allowed us to obtain data expressed in International Units (IU) from the microprocessor of the automated photometer. The results of the analysis are expressed in IU of activity of INF per ml in the given induction system containing 3·10^6 lymphocytes/ml. Every experimental and control point was studied in 4 parallel runs.
The results obtained were analyzed statistically using the t-test and the confidence interval at p=0.05 was calculated. Analysis of the convergence of the results of the parallel tests were performed.

[6] = tested on: McCoy and L929 cell cultures; assay: Control of the test compounds on toxicity relative to cell cultures in the chlamydia experiment; type: cell-based
Description: In the work reported here we used McCoy and L929 cell cultures obtained from the Institute of Cytology of the Russian Academy of Sciences. The cells were grown in flasks of neutral glass in RPMI-1640 medium with an addition of 10% fetal calf serum. The experiment was placed in glass (toxicity-free) flat-bottomed flasks and covered with glass. The cells were introduced into the medium in a final concentration of 1·10 cells/ml. After a monolayer was obtained, standard infectious doses of chlamydia that had been maintained in a frozen state at −70° C. were added to test tubes. […] The sample was centrifuged at 2400 g for 60 min at room temperature and incubated at 37° C. for 2 hours. […] A parallel series of samples was run using medium without the cycloheximide in order to avoid its influence on the test substances. The samples were incubated for 48 hours in a CO2 incubator.

[7] = tested on: Vero cell culture; assay: Control of compounds (toxicity of compounds) in the herpes experiment; type: cell-based; settings: Vero cells
Description: as §1
as §2, with “the claimed compounds dissolved in DMSO were added to give a final concentrations of 100, 10, and 1 mg/l.” left out
4. Control of compounds (toxicity of compounds).

Row | Compound | percent protection of the cells against the virus compared to the cell culture control ([1]; 10 mg/l) | number of cells in 100 fields (unchanged cells) ([1]; 10 mg/l) | percent protection of the cells against infection ([2]; 30 mg/l) | number of cells in 100 fields (unchanged cells) ([2]; 30 mg/l) | percent protection of the cells against infection ([2]; 100 mg/l) | number of cells in 100 fields (unchanged cells) ([2]; 100 mg/l) | percent protection of the cells against the virus compared to the cell culture control ([1]; 100 mg/l) | number of cells in 100 fields (unchanged cells) ([1]; 100 mg/l) | LD50 at 14 days [3] | percent protection of the cells against the virus compared to the cell culture control [4] | number of cells in 100 fields (unchanged cells) ([4]; cell control 12000) | Interferon-inducing activity of the drug; content of INF in induction mixture ([5]; 1 (unit uncertain)) | Interferon-inducing activity of the drug; content of INF in induction mixture ([5]; 10 (unit uncertain)) | Interferon-inducing activity of the drug; content of INF in induction mixture ([5]; 100 (unit uncertain)) | cytotoxicity of compound ([6]; 30 mg/l) | cytotoxicity of compound ([6]; 100 mg/l) | cytotoxicity of compound ([7]; 50 mg/l) | cytotoxicity of compound ([7]; 100 mg/l)
1 | Nc1nc2c(ncn2COCCO)c(=O)[nH]1 [Acyclovir, reference compound] | 80% | 9600 |  |  |  |  |  |  |  |  |  |  |  |  |  |  |  | 
2 | O=[N+]([O-])c1ccc(C2c3c(O)nc(O)nc3Oc3nc(O)nc(O)c32)cc1 [I, 2,4,6,8-Tetrahydroxy-5-(p-nitrophenyl)-5H-pyrano[2,3-d:6,5-d′]dipyrimidine] | 60% | 7200 | 70% | 7520 | 80% | 7640 | 80% | 9600 | 1600 mg/kg | 70% | 8400 | 8.0 ± 0.8 IU/3 · 10^4 lymp/ml | 28.0 ± 1.5 IU/3 · 10^4 lymp/ml | 80.0 ± 1.2 IU/3 · 10^4 lymp/ml |  |  |  | 
3 | Clc1nc(Cl)c2c(n1)Oc1nc(Cl)nc(Cl)c1C2c1ccccc1 [II, 5-Phenyl-2,4,6,8-tetrachloro-5H-pyrano[2,3-d:6,5-d′]dipyrimidine] |  |  |  |  |  |  |  |  |  |  |  | 2.0 ± 0.4 IU/3 · 10^4 lymp/ml | 16.0 ± 0.8 IU/3 · 10^4 lymp/ml | 40.0 ± 1.4 IU/3 · 10^4 lymp/ml | cytotoxic | cytotoxic | Cytotoxic | Cytotoxic
4 | Oc1nc(O)c2c(n1)Oc1nc(O)nc(O)c1C2c1ccc(I)cc1 [III] |  |  |  |  |  |  | 40% | 4800 |  |  |  | 56.5 ± 1.0 IU/3 · 10^4 lymp/ml | 112.6 ± 2.0 IU/3 · 10^4 lymp/ml | 243.2 ± 1.0 IU/3 · 10^4 lymp/ml |  |  |  | 
5 | Oc1nc(O)c2c(n1)Oc1nc(O)nc(O)c1C2 [IV] |  |  | 40% | 7040 |  |  |  |  |  |  |  | 3.8 ± 1.5 IU/3 · 10^4 lymp/ml | 29.9 ± 2.0 IU/3 · 10^4 lymp/ml | 74.0 ± 1.8 IU/3 · 10^4 lymp/ml |  | cytotoxic |  | Cytotoxic
6 | O=[N+]([O-])c1ccc(C2c3c(O)nc(S)nc3Oc3nc(S)nc(O)c32)cc1 [IX, 4-6-Dihydroxy-2,8-dimercapto-5-(p-nitrophenyl)-5H-pyrano[2,3-d:6,5-d′]dipyrimidine] |  |  |  |  | 60% | 7360 | 40% | 4800 |  |  |  | 6.8 ± 2.0 IU/3 · 10^4 lymp/ml | 28.0 ± 2.5 IU/3 · 10^4 lymp/ml | 64.0 ± 1.8 IU/3 · 10^4 lymp/ml |  |  |  | 
7 | COc1nc(O)nc2c1C(c1ccc([N+](=O)[O-])cc1)c1c(OC)nc(O)nc1O2 [V, 2,8-Dihydroxy-4,6-dimethoxy-5-(4-nitrophenyl)-5H-pyrano[2,3-d:6,5-d′]dipyrimidine] |  |  |  |  |  |  | 50% | 6000 |  |  |  | 10.5 ± 2.5 IU/3 · 10^4 lymp/ml | 50.6 ± 1.8 IU/3 · 10^4 lymp/ml | 108.9 ± 2.0 IU/3 · 10^4 lymp/ml |  | cytotoxic |  | 
8 | Oc1nc(O)c2c(n1)Oc1nc(O)nc(O)c1C2c1ccc(Br)cc1 [VII] |  |  |  |  |  |  | 30% | 3600 |  |  |  | 5.6 ± 1.6 IU/3 · 10^4 lymp/ml | 10.6 ± 1.8 IU/3 · 10^4 lymp/ml | 22.2 ± 1.4 IU/3 · 10^4 lymp/ml |  | cytotoxic |  | 
9 | Oc1nc(O)c2c(n1)Oc1nc(O)nc(O)c1C2c1ccc(Cl)cc1 [VI] |  |  |  |  | 15% | 6560 | 50% | 6000 |  |  |  | 6.5 ± 1.4 IU/3 · 10^4 lymp/ml | 36.9 ± 1.2 IU/3 · 10^4 lymp/ml | 92.2 ± 2.1 IU/3 · 10^4 lymp/ml |  |  |  | 
